Experiment [1] relates to Helicobacter pylori strain RIGLD-HC180. Description: Anti-Helicobacter pylori activity by agar dilution method. The class given is cell-based. The following applies: RIGLDHC180, 72 h, tested 50 to 2000 μg/mL, read-out: MIC for the growth of Helicobacter pylori. The procedure: Anti-Helicobacter pylori activity of the samples was investigated by an agar dilution method according to our previous study ([17]). […] The Agar dilution method has been standardized previously as an appropriate method to determine minimum inhibitory concentrations (MIC) of water-insoluble and colored plant extracts. […] Growth control plates were included in each experiment. […] All the experiments were performed in triplicate. Plates, including amoxicillin, were used as a positive control ([17]).

In experiment [2] the target is T1, Jack bean urease (Canavalia ensiformis, UniProt P07374).
T1 construct: purchased Sigma-Aldrich
The experiment is described as follows: biochemical. The class given is biochemical. The method, then:
Urease inhibitory activity was evaluated based on Tanaka et al. report ([18]). Jack bean urease (Sigma-Aldrich, Germany) was used as a surrogate for H. pylori urease. Each well of a 96-well plate contained 25 μL jack bean urease (6U, Sigma-Aldrich) and 25 μL different concentrations of tested materials that were prepared in phosphate buffer (PBS, pH 6.8 ) and DMSO 1% as a co-solvent. After 30 min incubation at room temperature, 200 μL of a stock solution composed of PBS (100 mM), urea (150 mM), and phenol red were added to each well. The absorbance changes were measured at 570 nm by a microplate reader. Hydroxyurea was used as the positive control ([18]).

The test system of experiment [3] is bacteria. Details: method as in earlier work. The following applies: combination with norfloxacin, ofloxacin and ciprofloxacin; ref 42 (Falcão‐Silva et al.); cited from earlier work.
The subject of experiment [4] is Staphylococcus epidermidis ATCC 12229. Description: Antibacterial activity by disc diffusion method, S. epidermidis. The class given is cell-based. The following applies: extract/fractions 500 µg/disc, ciprofloxacin 5 µg/disc, penicillin 10 µg/disc. The procedure:
(§1) Briefly, overnight cultures of bacteria were used to prepare a bacterial inoculum in sterile normal saline. The bacterial inoculum was standardized to the turbidity of 0.5 McFarland (the density equivalent to 1.5 × 10^8 cfu/mL). The surface of Mueller-Hinton (MH) agar plates was covered by 100 µL of diluted bacterial suspension containing 5 ×10^5 cfu. Different concentrations of the plant extract or fraction were prepared. Sterile blank discs (6.4 mm diameter) containing different concentrations of the plant extract or fractions (15 μL) were placed on the agar plates. The mean inhibition zone diameter was measured after overnight incubation at 37 °C.

Experiment [5] concerns Staphylococcus aureus ATCC 6538. Description: Antibacterial activity by disc diffusion method, S. aureus. It counts as cell-based. As to conditions: extract/fractions 500 µg/disc, ciprofloxacin 5 µg/disc, penicillin 10 µg/disc. The method, then:
as §1
In general terms: In agar diffusion tests the substance spreads into inoculated agar from a disc or well.

The test system of experiment [6] is Escherichia coli ATCC 8739. Description: Antibacterial activity by disc diffusion method, E. coli. As to conditions: extract/fractions 500 µg/disc, ciprofloxacin 5 µg/disc, penicillin 10 µg/disc. The class given is cell-based. The procedure: as §1

In brackets after ≈: the same amount, converted by molar mass. Like-named read-outs stand apart in the source and are kept apart here.

T1 sequence (P07374 whole entry, looked up): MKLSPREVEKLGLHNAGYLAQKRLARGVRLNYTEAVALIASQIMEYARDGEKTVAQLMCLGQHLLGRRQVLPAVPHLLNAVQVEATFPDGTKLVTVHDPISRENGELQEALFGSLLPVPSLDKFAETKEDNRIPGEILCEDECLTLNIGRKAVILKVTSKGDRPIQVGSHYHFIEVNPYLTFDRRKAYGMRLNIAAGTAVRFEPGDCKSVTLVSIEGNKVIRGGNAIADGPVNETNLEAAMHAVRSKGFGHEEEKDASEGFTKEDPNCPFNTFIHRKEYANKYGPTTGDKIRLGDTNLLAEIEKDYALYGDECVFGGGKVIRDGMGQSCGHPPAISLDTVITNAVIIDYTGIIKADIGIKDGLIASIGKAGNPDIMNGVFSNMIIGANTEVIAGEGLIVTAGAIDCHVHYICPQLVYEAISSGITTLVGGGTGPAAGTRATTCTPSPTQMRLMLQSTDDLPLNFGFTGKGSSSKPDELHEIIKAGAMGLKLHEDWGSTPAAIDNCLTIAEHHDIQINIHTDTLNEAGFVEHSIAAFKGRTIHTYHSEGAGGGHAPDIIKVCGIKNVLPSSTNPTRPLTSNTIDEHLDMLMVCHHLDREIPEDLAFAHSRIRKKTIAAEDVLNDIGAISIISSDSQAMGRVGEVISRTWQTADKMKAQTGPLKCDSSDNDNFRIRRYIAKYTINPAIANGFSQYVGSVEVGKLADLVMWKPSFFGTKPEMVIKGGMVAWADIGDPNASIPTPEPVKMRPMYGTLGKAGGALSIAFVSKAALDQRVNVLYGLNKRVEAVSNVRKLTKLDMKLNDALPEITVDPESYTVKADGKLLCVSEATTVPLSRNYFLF

Broadly, the MIC is the smallest concentration in the dilution series that meets the test's criterion for growth inhibition. As for `CC1(C)S[C@@H]2[C@H](NC(=O)[C@H](N)c3ccc(O)cc3)C(=O)N2[C@H]1C(=O)O` [Amoxicillin, amoxicillin], the minimal inhibitory concentration (MIC) in experiment [1] was 0.5 µg/mL (≈ 1.37 µM).

For orientation: IC50 means the point on the concentration scale where inhibition reaches its midpoint. `Cc1ccc(C(C)C)cc1O` [Carvacrol] gave an IC50 in experiment [2] of 0.7 ± 0.01 mM.

As for `NC(=O)NO` [Hydroxyurea], the 50% inhibitory concentration (IC50) in experiment [2] (isolated compounds, jack bean urease, read-out: Urease inhibitory IC50 (mM) ± SD) turned out to be 0.78 ± 0.01 mM. Further, in experiment [2] (total extract and fractions, jack bean urease), the “Urease inhibitory IC50 (µg/mL) ± SD” value is 59.51 ± 0.01 µg/mL.

Consider `Cc1ccc(C(C)C)c(O)c1` [Thymol], for which, in experiment [2], the IC50 amounted to 1.33 ± 0.06 mM.

In experiment [2], `O=C(/C=C/c1ccc(O)cc1)OC[C@H]1O[C@@H](Oc2c(-c3ccc(O)cc3)oc3cc(O)cc(O)c3c2=O)[C@H](O)[C@@H](O)[C@@H]1O` [Tiliroside, Kaempferol-3-O-(6''-O-trans-coumaryl) glucoside] displayed an IC50 of 0.45 ± 0.05 mM. For the same compound, the “Lowering of antibiotic MIC values in combination with tiliroside” value in experiment [3] is 2-16 fold.

Consider penicillin, for which the “Inhibition zone, S. epidermidis” value in experiment [4] stood at 26 mm. The “Inhibition zone, S. aureus” value in experiment [5] is reported as 24 mm. Besides, the “Inhibition zone, E. coli” value in experiment [6] amounted to 10 mm.

These data come from paper PMC8653682, “Anti-Helicobacter pylori Compounds from Oliveria decumbens Vent. through Urease Inhibitory In-vitro and In-silico Studies” (Iranian Journal of Pharmaceutical Research : IJPR, 2021).
